Experimental findings from patent publication US6083967A, “S-oxide and S,S-dioxide tetrahydrothiopyran phenyloxazolidinones” (Pharmacia & Upjohn Company, priority 1998, dated 2000) are described below.

In general, Ki refers to a measure of affinity in units of concentration, obtained from inhibition or displacement.

One assay addresses T1, human MAO A (Homo sapiens, UniProt P21397).
T1 construct: Human placental MAO A is solubilized and purified as described; from tissue; host or cells: human placenta (enzyme supplied by Dr. Neal Castagnoli Jr's lab, Virginia Technical University)
T1 sequence (P21397 1-527): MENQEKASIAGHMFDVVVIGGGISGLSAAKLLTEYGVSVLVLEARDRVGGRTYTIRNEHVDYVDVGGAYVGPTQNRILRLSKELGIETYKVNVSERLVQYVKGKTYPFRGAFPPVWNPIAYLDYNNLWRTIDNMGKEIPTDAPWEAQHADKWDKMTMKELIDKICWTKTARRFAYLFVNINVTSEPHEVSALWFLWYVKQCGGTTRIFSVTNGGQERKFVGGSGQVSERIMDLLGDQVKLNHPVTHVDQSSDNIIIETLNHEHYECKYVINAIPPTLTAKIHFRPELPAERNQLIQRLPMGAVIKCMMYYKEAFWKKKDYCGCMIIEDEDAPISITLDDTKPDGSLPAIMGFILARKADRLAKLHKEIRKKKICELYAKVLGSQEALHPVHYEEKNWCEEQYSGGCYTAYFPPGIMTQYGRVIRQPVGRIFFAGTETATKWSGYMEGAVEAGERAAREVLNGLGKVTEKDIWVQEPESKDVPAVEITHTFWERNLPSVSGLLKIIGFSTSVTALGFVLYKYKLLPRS
The assay can be described thus: Continuous spectrophotometric assay of inhibitory activity to human MAO-A. The following applies: pH 7.3, 37° C., 80 μM substrate, 1% DMSO, 15 minutes pre-incubation; read-out: Ki, inhibition of human MAO A. In kind it is biochemical. The text has this:
The continuous spectrophotometric assay for measuring MAO activity is based on a colored oxidation product of the chromogenic substrate, 1-methyl-4-(1-methyl-2-pyrryl)-1,2,3,6-tetrahydropyridine, by MAO enzymes. The product is stable for many days at room temperature. The conversion of the substrate to the oxidation product is followed continuously from the moment of mixing of the MAO enzyme with the substrate and the initial reaction rate curve is directly observed. The bright yellow-green oxidation product has a peak absorption at 421 nm with a broad band that can be measured between 390 nm to 440 nm. Thus, the assay can be performed on the least sophisticated spectrophotometric equipment.
Human placental MAO A is solubilized and purified as described in N. Castagnoli Jr. et al., J. Med Chem. Vol. 39, pp. 4756-4761 (1996) and J. I. Salach et al., J. of Bio. Chem., Vol. 260, p. 13199 (1985). The human placental MAO A is obtained as a concentrated solution (5 nmols per ml). Bovine liver MAO B is purified as described N. Castagnoli Jr. et al., J. Med Chem., Vol. 39, pp. 4756-4761 (1996) and J. I. Salach et al., Methods Enzymol., Vol. 142, pp […] (1987). The bovine liver MAO B is obtained as a concentrated solution (8 nmols per ml). Working stocks of the enzyme solutions are made by 1/50 dilution of initial stocks into 50 mM sodium phosphate and optionally 10% glycerol. The solutions are kept on ice until final dilution into the assay. Alternatively, the frozen MAO enzymes may be diluted 800-3200 fold into the 50 mM sodium phosphate buffer immediately before use. This method is useful when screening a large number of oxazolidinones.
Oxazolidinones are prepared in DMSO at a concentration of 50 mM. Serial dilutions of the 50 mM stock solution are made in DMSO to form additional stock solutions ranging from […] to 0.3125 mM. The stock solutions are then frozen until use. The stocks are diluted 1/100 into the final enzyme assay volume at the time of assay.
Typically, the enzyme, along with an oxazolidinone inhibitor, are preincubated for approximately 15 minutes in the sodium phosphate buffer prior to assay. The reactions are started by addition of the substrate. Initial velocities are generally collected over an interval of one to sixty minutes.
The assay functions well in the spectrophotometer cuvette for evaluating single oxazolidinone's MAO inhibitory activity. The assay has also been successfully adapted to operate in high throughput microtiterplate format (i.e., 96, 384 and 1536 well plate readers). Hundreds of assays can be run simultaneously. Assay volumes are 250 μL and the wells have an effective path length of 0.75 cm. Generally, the final composition of the assay in the microtiterplate comprises […] sodium phosphate (pH=7.3), oxazolidinone having concentration ranging up to 500 μM, 1% DMSO, 80 μM substrate (MAO A) or 200 μM substrate (MAO B), and sufficient enzyme to produce an absorbance change from 0.0005 to 0.050 per minute at 421 nm. The reaction is run at 37° C., and rapid temperature equilibration of the assay solution is achieved by preincubating the plate and stock solutions at about 37° C. The reaction is followed by recording the increase in absorbance at 421 nm. The oxidation product has an extinction coefficient of 25,000 M^-1 cm^-1 at 420. See: N. Castagnoli Jr. et al., J. Med Chem., Vol. 39, pp. 4756-4761 (1996). Initial rates are determined by linear regression of the progress curves over an absorbance change of 0.06-0.12 at 421 nm. This range represents a substrate consumption of approximately 5% in the assay. The percentage inhibition of an oxazolidinone is determined from the following equation
In the above equation, the term "negative control" refers to a complete assay with 1% of DMSO but no MAO enzyme. The term "positive control" refers to a complete assay with 1% of DMSO but no inhibitor. The term "rate (I)" refers to the reaction rate under a complete assay conditions. […]

The subject of another assay is H. influenzae 30063. The experiment in a line: MIC by agar dilution against H. influenzae 30063. The following applies: Haemophilus influenzae, in vitro. The format is cell-based. An excerpt:
(§1) The oxazolidinone antibacterial agents of this invention have useful activity against a variety of organisms. The in vitro activity of compounds of this invention can be assessed by standard testing procedures such as the determination of minimum inhibitory concentration (MIC) by agar dilution as described in "Approved Standard. Methods for Dilution Antimicrobial Susceptibility Tests for Bacteria That Grow Aerobically", 3rd. ed., published 1993 by the National Committee for Clinical Laboratory Standards, Villanova, Pa., USA.
(Agar dilution tests growth on a series of plates holding different concentrations.)

The subject of another assay is S. aureus UC 9213. The experiment in a line: MIC by agar dilution against S. aureus UC 9213. The following applies: Staphylococcus aureus, UC9213, in vitro. In kind it is cell-based.
From the text: as §1

The structures appear in SMILES notation. In brackets after ≈: the same amount, converted by molar mass.

Regarding `CC(=O)NC[C@H]1CN(c2ccc([C@H]3CC[S@@+]([O-])CC3)c(F)c2)C(=O)O1` [Example 1, (-)-N-[[(5S)-3-[3-fluoro-4-(cis-tetrahydro-1-oxido-2H-thiopyran-4-yl)phenyl]-2-oxo-5-oxazolidinyl]methyl]acetamide], the Ki on human MAO A worked out at 648 µM. In addition, the MIC in the assay on H. influenzae 30063 was 8 µg/mL (≈ 21.7 µM); with S. aureus UC 9213 it was 4 µg/mL (≈ 10.9 µM).

As for `CCC(=O)NC[C@H]1CN(c2ccc([C@H]3CC[S@@+]([O-])CC3)c(F)c2)C(=O)O1` [Example 2, (-)-N-[[(5S)-3-[3-fluoro-4-(cis-tetrahydro-1-oxido-2H-thiopyran-4-yl)phenyl]-2-oxo-5-oxazolidinyl]methyl]propanamide], the Ki at human MAO A was greater than 3000 µM. Besides, the MIC in the assay on H. influenzae 30063 turned out to be 16 µg/mL (≈ 41.8 µM); with S. aureus UC 9213, 8 µg/mL (≈ 20.9 µM).

For `O=C(NC[C@H]1CN(c2ccc([C@H]3CC[S@@+]([O-])CC3)c(F)c2)C(=O)O1)C1CC1` [Example 3, (-)-N-[[(5S)-3-[3-fluoro-4-(cis-tetrahydro-1-oxido-2H-thiopyran-4-yl)phenyl]-2-oxo-5-oxazolidinyl]methyl]cyclopropanecarboxamide], at human MAO A, the Ki is 734 µM. Also, the MIC was 16 µg/mL (≈ 40.6 µM) against H. influenzae 30063 and 8 µg/mL (≈ 20.3 µM) in the assay on S. aureus UC 9213.

With `O=C(NC[C@H]1CN(c2ccc([C@H]3CC[S@@+]([O-])CC3)c(F)c2)C(=O)O1)C(Cl)Cl` [Example 4, (-)-2,2-Dichloro-N-[[(5S)-3-[3-fluoro-4-(cis-tetrahydro-1-oxido-2H-thiopyran-4-yl)phenyl]-2-oxo-5-oxazolidinyl]methyl]acetamide], the Ki on human MAO A came to 2570 µM. For the same molecule, the MIC amounted to 8 µg/mL (≈ 18.3 µM) in the assay on H. influenzae 30063 and 2 µg/mL (≈ 4.57 µM) in the assay on S. aureus UC 9213.

As for `CCC(=O)NC[C@H]1CN(c2ccc(C3CCS(=O)(=O)CC3)c(F)c2)C(=O)O1` [Example 5, (-)-N-[[(5S)-3-[3-fluoro-4-(tetrahydro-1,1-dioxido-2H-thiopyran-4-yl)phenyl]-2-oxo-5-oxazolidinyl]methyl]propanamide], the Ki on human MAO A is 3000 µM. Moreover, the MIC worked out at 8 µg/mL (≈ 20.1 µM) against H. influenzae 30063 and 4 µg/mL (≈ 10 µM) against S. aureus UC 9213.

With `O=C(NC[C@H]1CN(c2ccc(C3CCS(=O)(=O)CC3)c(F)c2)C(=O)O1)C(Cl)Cl` [Example 6, (-)-2,2-dichloro-N-[[(5S)-3-[3-fluoro-4-(tetrahydro-1,1-dioxido-2H-thiopyran-4-yl)phenyl]-2-oxo-5-oxazolidinyl]methyl]acetamide], on human MAO A, the Ki is greater than 3000 µM. Moreover, the MIC against H. influenzae 30063 and with S. aureus UC 9213 was 2 µg/mL (≈ 4.41 µM) throughout.

For the molecule `CCC(=O)NC[C@H]1CN(c2ccc([C@H]3CC[S@+]([O-])CC3)c(F)c2)C(=O)O1` [Example 7, (-)-N-[[(5S)-3-[3-fluoro-4-(trans-tetrahydro-1-oxido-2H-thiopyran-4-yl)phenyl]-2-oxo-5-oxazolidinyl]methyl]propanamide], on human MAO A, the Ki worked out at 905 µM. In addition, the MIC in the assay with H. influenzae 30063 and against S. aureus UC 9213 was 4 µg/mL (≈ 10.5 µM) each time.

In the case of `O=C(NC[C@H]1CN(c2ccc([C@H]3CC[S@+]([O-])CC3)c(F)c2)C(=O)O1)C1CC1` [Example 8, (-)-N-[[(5S)-3-[3-fluoro-4-(trans-tetrahydro-1-oxido-2H-thiopyran-4-yl)phenyl]-2-oxo-5-oxazolidinyl]methyl]cyclopropanecarboxamide], on human MAO A, the Ki was greater than 3000 µM. Besides, the MIC against H. influenzae 30063 was determined as 16 µg/mL (≈ 40.6 µM); with S. aureus UC 9213 it was 8 µg/mL (≈ 20.3 µM).

As to `O=C(NC[C@H]1CN(c2ccc([C@H]3CC[S@+]([O-])CC3)c(F)c2)C(=O)O1)C(Cl)Cl` [Example 9, (-)-2,2-dichloro-N-[[(5S)-3-[3-fluoro-4-(trans-tetrahydro-1-oxido-2H-thiopyran-4-yl)phenyl]-2-oxo-5-oxazolidinyl]methyl]acetamide], at human MAO A, the Ki is 396 µM. Besides, the MIC came out at 2 µg/mL (≈ 4.57 µM) against H. influenzae 30063 and 1 µg/mL (≈ 2.29 µM) with S. aureus UC 9213.
